Measured values reported in paper PMC6934455, “Molecular Dynamics model of peptide-protein conjugation: case study of covalent complex between Sos1 peptide and N-terminal SH3 domain from Grb2” (Scientific Reports, 2019).

Molecular target: T1, C32S Grb2 N-SH3 (Homo sapiens, UniProt P62993, C32S)
T1 construct: encoding residues 2–59 of human Grb2; His6 (N); host or cells: E. coli Rosetta DE3 (Novagen)
Test: 1HN,15N-HSQC NMR titration, noncovalent binding
Excerpt: For quantitative analysis, we have selected a group of 8 well-resolved peaks showing substantial titration effects. The two-dimensional HSQC titration data for these peaks have been fitted using the program TITAN[39] on per-residue basis, as well as collectively (illustrated in Fig. 1D; for complete summary see Fig. S1).
pET-28 vectors for Grb2 N-SH3 (WT and C32S) encoding residues 2–59 of human Grb2 have been purchased from GenScript. The protein additionally containing N-terminal His6-tag was expressed in Rosetta DE3 cells (Novagen) using minimal M9 media. ^15N-NH4Cl and ^13C-glucose supplements have been used for isotope labeling. Protein expression was induced when OD600 reached 0.8. After 16 hours of incubation at 37 °C, cells were harvested, suspended in the standard lysis buffer (containing 2 mM of DTT) and then homogenized by SPEX SamplePrep 6870 Freezer/Mill followed by three rounds of sonication on ice. The sample was purified using Ni-affinity and size-exclusion chromatography (columns GE HisTrap HP and GE Sephacryl S-200 HR).
All measurements were conducted at 25 °C using 500 MHz Bruker Avance III spectrometer equipped with TBI room temperature probe. […] The buffer additionally contained 150 mM NaCl.
The peptide concentration was incremented from 0 to 160 μM in a step of 20 μM and then brought to 240 μM. […] The results were analyzed using the program TITAN[39].

T1 sequence (P62993 2-59 C32S): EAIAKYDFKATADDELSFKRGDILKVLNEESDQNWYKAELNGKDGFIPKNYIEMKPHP

Compound: CC(C)[C@H](N)C(=O)N1CCC[C@H]1C(=O)N1CCC[C@H]1C(=O)N1CCC[C@H]1C(=O)N[C@H](C(=O)N1CCC[C@H]1C(=O)N1CCC[C@H]1C(=O)N[C@@H](CCCNC(=N)N)C(=O)N[C@@H](CCCNC(=N)N)C(=O)N[C@@H](CCCNC(=N)N)C(=O)N[C@@H](CCCCNC(=O)CCl)C(=O)O)C(C)C [Sos1-X′]
- Kd: 4.9 µM
